Test results: ChEMBL document CHEMBL3351221, “Synthetic derivatives of aromatic abietane diterpenoids and their biological activities” (Eur J Med Chem, 2014)
≈ marks a conversion by molar mass, not a printed value.

How the values were obtained:
[1] = Cytotoxicity against human Hey-1B cells; format: functional, cell-based
[2] = Cytotoxicity against human PC3 cells; format: functional, cell-based; conditions: PC-3
SMMC-7721 = assay: Cytotoxicity against human SMMC7721 cells; format: functional, cell-based
A549 = assay: Cytotoxicity against human A549 cells; format: functional, cell-based
C6 = assay: Cytotoxicity against rat C6 cells; format: functional, cell-based
MCF7 = assay: Cytotoxicity against human MCF7 cells; format: functional, cell-based
Mus musculus [3] = assay: Gastroprotective activity in mouse assessed as reduction in HCl/EtOH-induced gastric lesions at 20 mg/kg; format: functional; conditions: Stomach
MRC5 = assay: Cytotoxicity against human MRC5 cells; format: cell-based
AGS = assay: Cytotoxicity against human AGS cells; format: cell-based
Staphylococcus aureus = assay: Antimicrobial activity against methicillin-resistant Staphylococcus aureus; format: functional
Enterococcus = assay: Antimicrobial activity against Vancomycin-resistant Enterococcus; format: functional
Mus musculus [4] = assay: Gastroprotective activity in mouse assessed as reduction in HCl/EtOH-induced gastric lesions at 10 mg/kg; format: functional; conditions: Stomach

Structure (SMILES): CC(C)c1cc2c(cc1[N+](=O)[O-])[C@@]1(C)CCC[C@@](C)(CNC(=O)c3ccccc3)[C@@H]1CC2
- IC50 [1]: 11.3 µg/mL (≈ 26 µM)
- IC50 [2]: 5.7 µg/mL (≈ 13.1 µM)

Structure (SMILES): CC(C)c1cc2c(cc1[N+](=O)[O-])[C@@]1(C)CCC[C@@](C)(CNC(=O)c3ccccc3Cl)[C@@H]1CC2
- IC50 [1]: 11.3 µg/mL (≈ 24.1 µM)
- IC50 [2]: 5.7 µg/mL (≈ 12.2 µM)

Structure (SMILES): CC(C)c1cc2c(cc1[N+](=O)[O-])[C@@]1(C)CCC[C@@](C)(CNC(=O)c3ccc([N+](=O)[O-])cc3)[C@@H]1CC2
- IC50 [1]: 11.3 µg/mL (≈ 23.6 µM)
- IC50 [2]: 5.7 µg/mL (≈ 11.9 µM)

Structure (SMILES): COc1ccc(/C=N/C[C@]2(C)CCC[C@]3(C)c4ccc(C(C)C)cc4CC[C@@H]23)cc1
- IC50 (SMMC-7721): 6.65 µM
- IC50 (A549): 0.75 µM
- IC50 (C6): 0.81 µM
- IC50 (MCF7): 10.7 µM

Structure (SMILES): COc1ccc(/C=N/C[C@]2(C)CCC[C@]3(C)c4ccc(C(C)C)cc4CC[C@@H]23)c(O)c1
- IC50 (SMMC-7721): 6.65 µM
- IC50 (A549): 0.75 µM
- IC50 (C6): 0.81 µM
- IC50 (MCF7): 10.7 µM

Structure (SMILES): CC(C)c1ccc2c(c1)CC[C@H]1[C@](C)(C/N=C/c3ccc(C(F)(F)F)cc3)CCC[C@]21C
- IC50 (SMMC-7721): 6.65 µM
- IC50 (A549): 0.75 µM
- IC50 (C6): 0.81 µM
- IC50 (MCF7): 10.7 µM

Structure (SMILES): CC(C)c1ccc2c(c1)CC[C@H]1[C@](C)(C/N=C/c3cccc(F)c3)CCC[C@]21C
- IC50 (SMMC-7721): 6.65 µM
- IC50 (A549): 0.75 µM
- IC50 (C6): 0.81 µM
- IC50 (MCF7): 10.7 µM

Structure (SMILES): CC(C)c1ccc2c(c1)CC[C@H]1C(C)(C)CCC[C@]21C
- inhibition in vivo at 20 mg/kg (Mus musculus [3]): 69%

Structure (SMILES): CC(Cl)C(=O)Oc1cc2c(cc1C(C)C)CC[C@H]1C(C)(C)CCC[C@]21C (stereo partly specified)
- IC50 (MRC5): 19 µM
- IC50 (AGS): 18 µM
- inhibition in vivo at 20 mg/kg (Mus musculus [3]): 76%

Structure (SMILES): C=CC(=O)Oc1cc2c(cc1C(C)C)CC[C@H]1C(C)(C)CCC[C@]21C
- IC50 (MRC5): 19 µM
- IC50 (AGS): 18 µM
- inhibition in vivo at 20 mg/kg (Mus musculus [3]): 67%

Structure (SMILES): CC(=O)OC[C@H]1O[C@@H](Oc2cc3c(cc2C(C)C)CC[C@H]2C(C)(C)CCC[C@]32C)[C@H](OC(C)=O)[C@@H](OC(C)=O)[C@@H]1OC(C)=O
- IC50 (MRC5): > 1000 µM
- IC50 (AGS): > 1000 µM
- inhibition in vivo at 20 mg/kg (Mus musculus [3]): 72%

Structure (SMILES): CC(C)c1cc2c(cc1O[C@@H]1O[C@H](CO)[C@H](O)[C@H](O)[C@H]1O)[C@@]1(C)CCCC(C)(C)[C@@H]1CC2
- IC50 (MRC5): 19 µM
- IC50 (AGS): 18 µM
- inhibition in vivo at 20 mg/kg (Mus musculus [3]): 61%

Structure (SMILES): CC(C)c1cc2c(cc1OC=O)[C@@]1(C)CCCC(C)(C)[C@@H]1CC2
- IC50 (MRC5): 19 µM
- IC50 (AGS): 18 µM

Structure (SMILES): CC(=O)Oc1cc2c(cc1C(C)C)CC[C@H]1C(C)(C)CCC[C@]21C
- IC50 (MRC5): 19 µM
- IC50 (AGS): 18 µM

Structure (SMILES): CCC(=O)Oc1cc2c(cc1C(C)C)CC[C@H]1C(C)(C)CCC[C@]21C
- IC50 (MRC5): 19 µM
- IC50 (AGS): 18 µM

Structure (SMILES): CC(C)c1cc2c(cc1O[C@@H]1O[C@H](CO)[C@@H](O)[C@H](O)[C@H]1O)[C@@]1(C)CCCC(C)(C)[C@@H]1CC2
- IC50 (MRC5): 19 µM
- IC50 (AGS): 18 µM

Structure (SMILES): CC(C)c1cc2c(cc1OC(=O)c1cccnc1)[C@@]1(C)CCCC(C)(C)[C@@H]1CC2
- IC50 (MRC5): > 1000 µM
- IC50 (AGS): 22 µM
- inhibition in vivo at 20 mg/kg (Mus musculus [3]): 71%

Structure (SMILES): CCCCCCCCCCCCCCCC(=O)Oc1cc2c(cc1C(C)C)CC[C@H]1C(C)(C)CCC[C@]21C
- IC50 (MRC5): > 1000 µM
- inhibition in vivo at 20 mg/kg (Mus musculus [3]): 50%

Structure (SMILES): CCCCCCCC/C=C/CCCCCCCC(=O)Oc1cc2c(cc1C(C)C)CC[C@H]1C(C)(C)CCC[C@]21C
- IC50 (MRC5): > 1000 µM
- inhibition in vivo at 20 mg/kg (Mus musculus [3]): 50%

Structure (SMILES): Cc1c(C(=O)Oc2cc3c(cc2C(C)C)CC[C@H]2C(C)(C)CCC[C@]32C)oc2ccccc12
- IC50 (MRC5): > 1000 µM
- inhibition in vivo at 20 mg/kg (Mus musculus [3]): 50%

Structure (SMILES): CC(C)c1cc2c(cc1OC(=O)Cc1c[nH]c3ccccc13)[C@@]1(C)CCCC(C)(C)[C@@H]1CC2
- IC50 (MRC5): > 1000 µM
- IC50 (AGS): 12 µM
- inhibition in vivo at 20 mg/kg (Mus musculus [3]): 50%

Structure (SMILES): CC(C)c1cc2c(cc1OC(=O)CCCc1c[nH]c3ccccc13)[C@@]1(C)CCCC(C)(C)[C@@H]1CC2
- IC50 (MRC5): > 1000 µM
- inhibition in vivo at 20 mg/kg (Mus musculus [3]): 50%

Structure (SMILES): CC(C)c1cc2c(cc1OC(=O)c1cc([N+](=O)[O-])cc([N+](=O)[O-])c1)[C@@]1(C)CCCC(C)(C)[C@@H]1CC2
- IC50 (MRC5): > 1000 µM
- IC50 (AGS): 29 µM

Structure (SMILES): CC(C)c1cc2c(cc1O)[C@@]1(C)CCCC(C)(C)[C@@H]1C(=O)C2
- MIC (Staphylococcus aureus): 4 µg/mL (≈ 13.3 µM)
- MIC (Enterococcus): 4 µg/mL (≈ 13.3 µM)

Structure (SMILES): COC(=O)[C@]12CCCC(C)(C)[C@@H]1CCc1cc(C(C)C)c(OC(=O)c3ccccc3)c(OC(=O)c3ccccc3)c12
- inhibition in vivo at 10 mg/kg (Mus musculus [4]): 73%

Structure (SMILES): CCCOC(=O)[C@]12CCCC(C)(C)[C@@H]1CCc1cc(C(C)C)c(OC)c(OC(=O)CCC)c12
- inhibition in vivo at 10 mg/kg (Mus musculus [4]): 73%

Structure (SMILES): COC(=O)[C@]12CCCC(C)(C)[C@@H]1CCc1cc(C(C)C)c(OC(=O)Cc3cc4ccccc4[nH]3)c(OC(=O)Cc3cc4ccccc4[nH]3)c12
- inhibition in vivo at 10 mg/kg (Mus musculus [4]): 73%

Structure (SMILES): CC(C)c1cc2c(c(O)c1O)[C@@]1(C)CCCC(C)(C)[C@@H]1CC2=O [DEMETHYLCRYPTOJAPONOL]
- MIC (Staphylococcus aureus): 4 µg/mL (≈ 12.6 µM)
- MIC (Enterococcus): 4 µg/mL (≈ 12.6 µM)

Structure (SMILES): CC(C)c1cc2c(cc1O)[C@@]1(C)CCCC(C)(C)[C@@H]1CC2 [FERRUGINOL]
- IC50 (MRC5): 19 µM
- IC50 (AGS): 18 µM

Structure (SMILES): Cc1c(OCC(F)(F)F)ccnc1C[S+]([O-])c1nc2ccccc2[nH]1 (stereo unspecified) [LANSOPRAZOLE]
- inhibition in vivo at 10 mg/kg (Mus musculus [4]): 64%

Structure (SMILES): CC(C)c1cc2c(c(O)c1O)[C@@]1(C)CCCC(C)(C)C1=CC2=O [SALVINOLONE]
- MIC (Staphylococcus aureus): 4 µg/mL (≈ 12.7 µM)
- MIC (Enterococcus): 4 µg/mL (≈ 12.7 µM)
